# Measured values: patent US5912259A, “Method for treating and preventing neurodegenerative disorders by administering a thiazolidinone” (Warner-Lambert Company, priority 1998, dated 1999)
# Assays:
# [1] = tested on: cyclooxygenase; details: described in U.S. Pat. No. 5,143,928; cited from earlier work
# [2] = tested on: 5-lipoxygenase; details: described in U.S. Pat. No. 5,143,928; cited from earlier work
# [3] = tested on: NMDA-induced injury
# Protocol: Intrastriatal injections of NMDA (15 nmol/0.5 μL) were performed in male and female Sprague-Dawley rat pups (Charles River Laboratory, Portage, Mich.) on Postnatal Day (PND) 7. The animals were anesthetized with ether, and the calvarium was exposed by a midline incision through the skin. The rat pups were placed in a plaster of paris mold that was secured to a small animal stereotaxic instrument (Kopf Instruments). NMDA (Sigma) was dissolved in 0.1 M phosphate-buffered saline (PBS) adjusted to pH 7.4 with 1 N NaOH. Injections of NMDA ([…]) were placed in the middle of the right posterior corpus striatum (coordinates relative to Bregma; AP -2.0 mm, ML 2.5 mm, at a depth of 4.0 mm from the dura) with a 26-gauge Hamilton syringe. The syringe was left in place for 2 minutes following the injections to limit leakage. Temperature of the animals was kept constant after surgery in a thermostatically controlled environment (HovaBator chick incubator; BFG Corp., Savannah, Ga.) set at 35° C. to 36° C. for 1 hour after the last drug or vehicle injection. Drug solutions were prepared in PBS and injected intraperitoneally (0.05 mL volume) 15 minutes, and 2.25 hours after intrastriatal injection of NMDA. Control animals received equal volumes of PBS.
# After surgery, all animals were returned to the mothers for 5 days, and decapitated on PND 12. The brains were removed, the cerebral hemispheres were separated, and wet weights of each hemisphere were determined individually. Differences of the hemispheric weights were compared for each animal using the formula: 100×(C-I/C)=percent damage, a value that indicates the severity of damage of the injected (I) cerebral hemisphere relative to that of the uninjected contralateral (C) hemisphere. Percent protection is used to indicate the relative protection of the neuroprotective compound compared to the control and was calculated as: 100×[1-(% damagetreated /% damagecontrol)]. Data were expressed as mean percent damage±S.E.M. in all groups. Independent t-tests were used for statistical comparisons.
# [4] = tested on: canine leptomeningeal smooth muscle cells; experiment: Amyloid β-peptide-induced cytotoxicity in canine leptomeningeal smooth muscle cells; type: cell-based, dog
# From the text: Canine smooth muscle cells were isolated from freshly obtained old dog meninges. […] Old dogs have an angiopathy resembling the human condition. Smooth muscle cells are the site of cerebral vessel myopathy occurring in the Dutch form of Alzheimer's disease. The compromise of these cells ultimately leads to a cerebrovascular accident and the death of some humans.
# Cells from the meninges were dissociated and kept in culture in 10% fetal calf serum and Dulbecco's minimal essential media with antibiotics for about 1 week on tissue culture plates before use in biochemical studies or transferal to uncoated microscope slides for morphological studies. These smooth muscle cells represent brain blood vessel cells and they can be passaged several times. For inducing cytotoxicity, the cells were treated, in serum-free media, with 10 to 20 μM of amyloid β-peptide that was 42 amino acids long. This peptide corresponds to the human β-peptide sequence. The peptide was dissolved in water immediately before use. This small amount of protein is believed to approximate the concentration of protein observed in postmortem samples in the brains of people who died with Alzheimer's dementia.
# Percentages were determined by counting normal and apoptotic nuclei in three fields with five independent measures in a fluorescence microscope.
compound,measurement,setting,value
"CC(C)(C)c1cc(C=C2SC(=N)NC2=O)cc(C(C)(C)C)c1O [5-[[3,5-bis-(1,1-dimethylethyl)-4-hydroxyphenyl]methylene]-2-imino-4-thiazolidinone]",inhibition of cyclooxygenase activity,[1],inhibits the activities of both cyclooxygenase and 5-lipoxygenase
same,inhibition of 5-lipoxygenase activity,[2],inhibits the activities of both cyclooxygenase and 5-lipoxygenase
"CN[C@H](CC(=O)O)C(=O)O [NMDA, N-methyl-D-aspartate, reference compound]",reduction in wet weight of the ipsilateral cerebral hemisphere,"[3]; NMDA 15 nmol/0.5 μL injected into posterior striatum, i.p. PBS, N=10",20.6±1.8%
"COc1ccc2c(c1)c(CC(=O)O)c(C)n2C(=O)c1ccc(Cl)cc1 [indomethacin, reference compound]",protection compared with the thiazolidinone,"[3]; 2×30 mg/kg, versus thiazolidinone 2×30 mg/kg",comparable
human protein sequence: amyloid β-peptide that was 42 amino acids long; corresponds to the human β-peptide sequence [reference compound],earliest statistically significant cytotoxicity,[4]; 10 to 20 μM amyloid β-peptide,24 h
same,smooth muscle cells killed apoptotically,"[4]; 10 to 20 μM, 1-week period, serum-free media, Hoechst 33258, 10080 min",70% to 85
